Structures can show the parent of a compound that is named as a salt. Where two headings read alike, the source gives them in different places.
Biological target: full length endogenous MCL1 protein (Homo sapiens (Human), UniProt Q07820)
Assay: PIxEL: protein-protein interaction in permeabilized cells by ELISA (Assay 5)
Assay type: cell-based
Conditions: permeabilized RKO cells, biotin-BIM BH3 peptide, read-out: PIxEL IC50 (median)
Procedure: PIxEL: Protein-Protein Interaction in Permeabilized Cells by ELISA
Most MCL1 protein molecules are localized at the mitochondria outer membrane and sequester pro-apoptotic proteins through binding of their BCL2 homology domain 3 (BH3 domain). MEB buffer (150 mM mannitol, 10 mM HEPES pH 7.5, 50 mM KCl, 20 μM EDTA, 20 μM EGTA, 5 mM potassium succinate, 0.1% protease-free BSA (SIGMA) with low dose digitonin (0.002%) permeabilizes plasma membrane while leaves live mitochondria, where MCL1 maintains its native localization and conformation. Unlike biophysical assays (e.g. TR-FRET) that use truncated recombinant MCL1 protein, this assay uses full length endogenous MCL1 protein at mitochondria outer membrane. It measures the interaction between MCL1 protein and biotinylated BIM BH3 peptide. Compounds can compete with BIM BH3 peptide to bind to MCL1 protein. This serum free assay measures the affinity between MCL1 protein and compound in permeabilized cells, therefore it is not affected by serum binding and cell permeability, and can measure the intrinsic compound affinity.
On day 1, RKO colon cancer cell line cells were plated at 0.8 million cells/ml, 100 μl/well in 96-well flat bottom TC plates (Corning). MCL1 antibody (Santa Cruz sc-12756) were diluted at 200 fold (final concentration 1 μg/ml) in carbonate buffer (Thermo Fisher Scientific, pH 9.6), and 50 μl of diluted antibody was added to each well of high bind ELISA plates ([…]). Each plate was tapped to make sure liquid covering entire bottom of wells and incubate at 37° C. overnight.
On the second day, MCL1 antibody was washed from ELISA plate. 250 μl Odyssey® Blocking Buffer (PBS) (Li-Cor) was added to each well, incubated at room temperature for at least 1 hour, then washed once with 250 μl 1×PBST. Plates with RKO cells were gently washed once with 100 μl/well PBS, once with 100 μl/well MEB buffer without digitonin, then 100 μl of MEB buffer with 0.002% digitonin was gently added to each well. Compounds were added with HP Tecan compound dispenser in 3-fold dilution series, highest dose 30 μM, 10-dose per compound in quadruplicates. Biotin-BIM peptide (synthesized by 21st Century) was added with HP Tecan compound dispenser at 0.2 μM immediately after the addition of compounds. Plates were rocked for 1 h at room temperature. Then MEB buffer was aspirated and 50 μl of CHAPS buffer (50 mM Tris-Cl, pH 7.4, 150 mM NaCl, 1% CHAPS, 1 mM EDTA, 1 mM EGTA, complete protease inhibitors (Roche), PhosSTOP (Roche)) was added to each well. […]
On the third day, ELISA plates were washed once with 250 μl 1×PBST. […] Plates were shaken for 1 minute then luminescence was measured by Envision plate reader (HP). […] IC50 was calculated using Graphic Pad PRISM software.

full length endogenous MCL1 protein, sequence (Q07820 whole entry): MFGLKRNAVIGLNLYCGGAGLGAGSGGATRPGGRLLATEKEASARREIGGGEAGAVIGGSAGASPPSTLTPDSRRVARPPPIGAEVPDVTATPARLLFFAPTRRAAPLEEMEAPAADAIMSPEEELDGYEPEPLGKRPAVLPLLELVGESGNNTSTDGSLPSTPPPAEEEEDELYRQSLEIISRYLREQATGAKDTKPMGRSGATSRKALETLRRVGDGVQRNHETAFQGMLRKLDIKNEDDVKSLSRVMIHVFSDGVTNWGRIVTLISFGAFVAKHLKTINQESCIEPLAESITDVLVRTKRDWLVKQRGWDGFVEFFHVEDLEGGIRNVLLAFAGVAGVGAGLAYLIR

| IC50 (printed in uM) [µM] | IC50 [µM] | Structure (SMILES) |
| --- | --- | --- |
| > 30 | – | Cc1c2c(nn1C)N(C)CCCCCn1c(C(=O)O)c(CCCOc3cccc4ccccc34)c3ccc(Cl)c-2c31 (racemic) [Example 71, (rac)-4-chloro-2,3,15-trimethyl-7-{3-[(naphthalen-1-yl)oxy]propyl}-10,11,12,13,14,15-hexahydro-2H-pyrazolo[4′,3′:4,5][1,6]diazacycloundecino[3,2,1-hi]indole-8-carboxylic acid] |
| – | 0.214 | Cc1c2c(nn1C)N(C)CCCCCn1c(C(=O)O)c(CCCOc3cccc4cc(F)ccc34)c3ccc(Cl)c-2c31 (racemic) [Example 74, (rac)-4-chloro-7-{3-[(6-fluoronaphthalen-1-yl)oxy]propyl}-2,3,15-trimethyl-10,11,12,13,14,15-hexahydro-2H-pyrazolo[4′,3′:4,5][1,6]diazacycloundecino[3,2,1-hi]indole-8-carboxylic acid] |
| – | 0.037 | CCc1c2c(nn1C)N(C)CCCCCn1c(C(=O)O)c(CCCOc3cccc4cc(F)ccc34)c3ccc(Cl)c-2c31 (single isomer, unassigned; enantiomer 1) [Example 78, 4-chloro-3-ethyl-7-{3-[(6-fluoronaphthalen-1-yl)oxy]propyl}-2,15-dimethyl-10,11,12,13,14,15-hexahydro-2H-pyrazolo[4′,3′:4,5][1,6]diazacycloundecino[3,2,1-hi]indole-8-carboxylic acid-N-ethylethanamine Salt—Enantiomer 1] |
| – | 0.146 | Cc1c2c(nn1C)N(C)CCCCCn1c(C(=O)O)c(CCCOc3cccc4cc(F)ccc34)c3ccc(Cl)c-2c31 [Example 75, (+)-4-chloro-7-{3-[(6-fluoronaphthalen-1-yl)oxy]propyl}-2,3,15-trimethyl-10,11,12,13,14,15-hexahydro-2H-pyrazolo[4′,3′:4,5][1,6]diazacycloundecino[3,2,1-hi]indole-8-carboxylic acid-N-ethylethanamine salt] |

Source: patent US11447504B2, “Macrocyclic chlorine substituted indole derivatives” (Bayer Aktiengesellschaft, priority 2017, dated 2022)
